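Exposure lasted 48 hours, with cells grown in 96-well plates and compounds tested at five concentrations. At the GI50, growth is halved.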 The source made the active and inactive calls. Rule as the data show it: active = GI50 up to about 1.1 µM and inactive = higher.
Experiments:
Assay in all cases: growth of human tumour cells (NCI), 48 h
NCI-H522 = test system: NCI-H522
SF-268 = test system: SF-268
NCI-H460 = test system: NCI-H460
SF-295 = test system: SF-295
SN12C = test system: SN12C
Malme-3M = test system: Malme-3M
LOX IMVI = test system: LOX IMVI
A498 = test system: A498
MDA-MB-435 = test system: MDA-MB-435
SW-620 = test system: SW-620
T47D = test system: T47D
OVCAR-8 = test system: OVCAR-8
U-251 = test system: U-251
HT-29 = test system: HT-29
HCT-116 = test system: HCT-116
HCC 2998 = test system: HCC 2998
SNB-75 = test system: SNB-75
NCI-H226 = test system: NCI-H226
MCF7 = test system: MCF7
RXF 393 = test system: RXF 393

Row | SMILES | GI50 (NCI-H522) | GI50 (SF-268) | GI50 (NCI-H460) | GI50 (SF-295) | GI50 (SN12C) | GI50 (Malme-3M) | GI50 (LOX IMVI) | GI50 (A498) | GI50 (MDA-MB-435) | GI50 (SW-620) | GI50 (T47D) | GI50 (OVCAR-8) | GI50 (U-251) | GI50 (HT-29) | GI50 (HCT-116) | GI50 (HCC 2998) | GI50 (SNB-75) | GI50 (NCI-H226) | GI50 (MCF7) | GI50 (RXF 393)
1 | BrCc1ccc(CBr)c2c1-c1c(CBr)ccc3ccc(CBr)c-2c13 | > 100 µM (inactive) | > 100 µM (inactive) | > 100 µM (inactive) | > 100 µM (inactive) | > 100 µM (inactive) | > 100 µM (inactive) | > 100 µM (inactive) | > 100 µM (inactive) | > 100 µM (inactive) | > 100 µM (inactive) | > 100 µM (inactive) | > 100 µM (inactive) | 49.8 µM (inactive) | > 100 µM (inactive) | 98.6 µM (inactive) | > 100 µM (inactive) | > 100 µM (inactive) | > 100 µM (inactive) | > 100 µM (inactive) | –
2 | CCNCCCNc1c2ccccc2nc2ccccc12 | 0.183 µM (active) | 0.472 µM (active) | 0.196 µM (active) | 0.498 µM (active) | 0.429 µM (active) | 0.406 µM (active) | 0.251 µM (active) | 0.631 µM (active) | 0.479 µM (active) | 0.278 µM (active) | 0.502 µM (active) | 0.349 µM (active) | 0.435 µM (active) | 0.219 µM (active) | 0.365 µM (active) | 0.239 µM (active) | 0.234 µM (active) | – | 0.193 µM (active) | 0.568 µM (active)
3 | CCN(CC)CCn1ncc2c3c(=O)c4cccnc4n(CCN(CC)CC)c3ccc21 | > 10 µM (inactive) | 7.43 µM (inactive) | 6.18 µM (inactive) | 7.45 µM (inactive) | 8.87 µM (inactive) | > 10 µM (inactive) | 5.41 µM (inactive) | > 10 µM (inactive) | 6.21 µM (inactive) | 3.77 µM (inactive) | > 10 µM (inactive) | 7.93 µM (inactive) | > 10 µM (inactive) | 3.51 µM (inactive) | 3.54 µM (inactive) | > 10 µM (inactive) | 9.66 µM (inactive) | > 10 µM (inactive) | 3.22 µM (inactive) | > 10 µM (inactive)
4 | CC1C2CC(CC(=O)N2)C1(C)C (configuration not stated) | > 100 µM (inactive) | > 100 µM (inactive) | > 100 µM (inactive) | > 100 µM (inactive) | > 100 µM (inactive) | > 100 µM (inactive) | – | > 100 µM (inactive) | > 100 µM (inactive) | > 100 µM (inactive) | > 100 µM (inactive) | > 100 µM (inactive) | > 100 µM (inactive) | > 100 µM (inactive) | > 100 µM (inactive) | > 100 µM (inactive) | > 100 µM (inactive) | > 100 µM (inactive) | > 100 µM (inactive) | > 100 µM (inactive)
5 | COc1ccccc1C1C2=C(COC2=O)Oc2cc3c(cc21)OCO3 (configuration not stated) | 0.619 µM (active) | 4.88 µM (inactive) | 3.64 µM (inactive) | 2.17 µM (inactive) | 3.82 µM (inactive) | 14.1 µM (inactive) | 2.27 µM (inactive) | 2.23 µM (inactive) | 0.249 µM (active) | 1.38 µM (inactive) | 2.32 µM (inactive) | 3.39 µM (inactive) | 3.66 µM (inactive) | 1.65 µM (inactive) | 1.87 µM (inactive) | 3.23 µM (inactive) | 3.51 µM (inactive) | 5.31 µM (inactive) | 1.67 µM (inactive) | 1.69 µM (inactive)
6 | NNC(=O)CSc1nnc(CCCCCCCCc2nnc(SCC(=O)NN)o2)o1 | > 100 µM (inactive) | > 100 µM (inactive) | > 100 µM (inactive) | > 100 µM (inactive) | > 100 µM (inactive) | > 100 µM (inactive) | > 100 µM (inactive) | > 100 µM (inactive) | > 100 µM (inactive) | > 100 µM (inactive) | > 100 µM (inactive) | > 100 µM (inactive) | > 100 µM (inactive) | > 100 µM (inactive) | > 100 µM (inactive) | > 100 µM (inactive) | > 100 µM (inactive) | > 100 µM (inactive) | > 100 µM (inactive) | > 100 µM (inactive)
7 | Cc1ccc2c(c1)C(=O)/C(=C1/CCc3ccc(C)cc31)C2 | 32.4 µM (inactive) | > 100 µM (inactive) | > 100 µM (inactive) | > 100 µM (inactive) | > 100 µM (inactive) | > 100 µM (inactive) | > 100 µM (inactive) | > 100 µM (inactive) | > 100 µM (inactive) | > 100 µM (inactive) | 14.7 µM (inactive) | 48.6 µM (inactive) | > 100 µM (inactive) | > 100 µM (inactive) | 59 µM (inactive) | > 100 µM (inactive) | 13.9 µM (inactive) | > 100 µM (inactive) | > 100 µM (inactive) | > 100 µM (inactive)
8 | CCCCC(=O)Nc1ccc2cc(C(=O)OC)c(ON3C(=O)c4ccccc4C3=O)nc2n1 | 23.3 µM (inactive) | 29.1 µM (inactive) | 15.3 µM (inactive) | 33.8 µM (inactive) | 28.9 µM (inactive) | 17.9 µM (inactive) | 31 µM (inactive) | 27.4 µM (inactive) | 37.6 µM (inactive) | 46 µM (inactive) | 35.3 µM (inactive) | 25 µM (inactive) | 26.5 µM (inactive) | – | 15.7 µM (inactive) | 22.6 µM (inactive) | 28.6 µM (inactive) | 22.5 µM (inactive) | 43.2 µM (inactive) | 20.5 µM (inactive)
9 | Cc1cc(Cl)ccc1NC(=O)/C(Cc1nc2ccc(C(=O)c3ccccc3)cc2nc1O)=N/NC(=O)c1ccncc1 | > 100 µM (inactive) | > 100 µM (inactive) | > 100 µM (inactive) | > 100 µM (inactive) | > 100 µM (inactive) | > 100 µM (inactive) | > 100 µM (inactive) | > 100 µM (inactive) | 42.4 µM (inactive) | > 100 µM (inactive) | > 100 µM (inactive) | > 100 µM (inactive) | > 100 µM (inactive) | > 100 µM (inactive) | 50.6 µM (inactive) | > 100 µM (inactive) | > 100 µM (inactive) | 1.72 µM (inactive) | > 100 µM (inactive) | > 100 µM (inactive)
10 | Cc1cc(S(=O)(=O)N=C2N(Cc3ccccc3)CCN2Cc2ccccc2)c(S)cc1Cl | 40.6 µM (inactive) | 36 µM (inactive) | 56.1 µM (inactive) | 48.9 µM (inactive) | > 100 µM (inactive) | > 100 µM (inactive) | 70.8 µM (inactive) | > 100 µM (inactive) | > 100 µM (inactive) | > 100 µM (inactive) | 10.8 µM (inactive) | > 100 µM (inactive) | 54.8 µM (inactive) | > 100 µM (inactive) | > 100 µM (inactive) | > 100 µM (inactive) | 69.8 µM (inactive) | 85.5 µM (inactive) | > 100 µM (inactive) | 78.3 µM (inactive)
11 | COc1cccc2c1NC(=O)Cc1c-2[nH]c2ccccc12 | 49.9 µM (inactive) | > 100 µM (inactive) | 35.1 µM (inactive) | > 100 µM (inactive) | – | > 100 µM (inactive) | > 100 µM (inactive) | > 100 µM (inactive) | 29.1 µM (inactive) | > 100 µM (inactive) | 40.6 µM (inactive) | – | > 100 µM (inactive) | 47.6 µM (inactive) | – | > 100 µM (inactive) | > 100 µM (inactive) | > 100 µM (inactive) | 88.5 µM (inactive) | > 100 µM (inactive)
12 | O=C1CC(=O)c2c(N3CCCC3)sc(N3CCCC3)c21 | 57.4 µM (inactive) | > 100 µM (inactive) | > 100 µM (inactive) | > 100 µM (inactive) | > 100 µM (inactive) | > 100 µM (inactive) | > 100 µM (inactive) | > 100 µM (inactive) | > 100 µM (inactive) | > 100 µM (inactive) | > 100 µM (inactive) | > 100 µM (inactive) | > 100 µM (inactive) | > 100 µM (inactive) | > 100 µM (inactive) | > 100 µM (inactive) | > 100 µM (inactive) | > 100 µM (inactive) | > 100 µM (inactive) | > 100 µM (inactive)
13 | COc1cc(C2c3cc4c(cc3OC(NCCO)C2C)OCO4)cc(OC)c1OC (configuration not stated) | 0.241 µM (active) | 2.05 µM (inactive) | 0.409 µM (active) | 0.274 µM (active) | 0.658 µM (active) | 0.431 µM (active) | 0.42 µM (active) | 0.325 µM (active) | 0.0927 µM (active) | 0.326 µM (active) | > 74.3 µM (inactive) | 2.2 µM (inactive) | 0.406 µM (active) | 0.369 µM (active) | 0.364 µM (active) | 0.824 µM (active) | 1.12 µM (inactive) | 0.644 µM (active) | 0.344 µM (active) | 0.426 µM (active)
14 | FC(F)(Sc1ncc[nH]1)c1nc2ccccc2o1 | > 100 µM (inactive) | > 100 µM (inactive) | > 100 µM (inactive) | > 100 µM (inactive) | > 100 µM (inactive) | > 100 µM (inactive) | – | > 100 µM (inactive) | > 100 µM (inactive) | > 100 µM (inactive) | > 100 µM (inactive) | > 100 µM (inactive) | > 100 µM (inactive) | > 100 µM (inactive) | > 100 µM (inactive) | > 100 µM (inactive) | > 100 µM (inactive) | > 100 µM (inactive) | > 100 µM (inactive) | > 100 µM (inactive)
